# Assay results published in patent publication US11759791B2, “Jet milling method” (VECTURA LIMITED, priority 2015, dated 2023).
# Test: Particle size analysis (wet analysis), Malvern Mastersizer 3000 Hydro MV
# Assay type: physicochemical
# Details: unmicronised / as supplied, wet analysis method
# Experimental: […] The pump speed was set to 3000 rpm. […] The dispersed particles were added to the dispersion unit to reach an obscuration of 5-15%. The optical properties used included a refractive index of 1.52 and an absorption value of 1.0 for the glycopyrrolate, and a refractive index of 1.45 and an absorption value of 1.0 for the magnesium stearate and a refractive index of 1.391 for the iso-octane. Six replicates were performed per measurement.
Molecule,D10 particle size of source powder,D50 particle size of source powder,D90 particle size of source powder
"C[N+]1(C)CCC(OC(=O)C(O)(c2ccccc2)C2CCCC2)C1 (stereo not drawn) [Unmicronised glycopyrrolate, glycopyrrolate]",20.6 μm,148.7 μm,409.7 μm
magnesium stearate,2.8 μm,8.8 μm,27.4 μm
